Patent US20170348376A1, “TUBULYSIN CONJUGATE FOR USE IN TREATING CANCER” (ENDOCYTE, INC., priority 2016, published 2017)
Where a name gives a salt, the structure may show the parent alone.

Columns and labels:
[1] = test system: primary human NSCLC model LU2505 tumors; assay: Antitumor activity in Huprime NSCLC PDX tumor model LU2505; assay type: in vivo, Balb/c nu/nu mice; details: Docetaxel 15 mg/kg, one dose
Protocol: (§1) These studies were performed at Crown Bioscience (Beijing) Inc., Ground Floor, Light Muller Building, Changping Sector of Zhongguancun Scientific Park, No. 21 Huoju Road, Changping District, Beijing, P.R. China.

[2] = test system: primary human NSCLC model LU1147 tumors; assay: Antitumor activity in Huprime NSCLC PDX tumor model LU1147; assay type: in vivo, Balb/c nu/nu mice; details: Docetaxel 15 mg/kg, one dose
Protocol: as §1

[3] = test system: primary human TNBC model ST738 tumors; assay: Antitumor activity in TNBC ST738 model; assay type: in vivo, Balb/c nu/nu mice; details: Eribulin mesylate 1 mg/kg, once a week for two weeks (SIW×2); n=7
Protocol: (§2) These materials were obtained from and studies were performed at South Texas Accelerated Research Therapeutics, 4383 Medical Drive, San Antonio, Tex. 78229

[4] = test system: primary human TNBC model ST502 tumors; assay: Antitumor activity in TNBC ST502 model; assay type: in vivo, Balb/c nu/nu mice; details: Eribulin mesylate 1 mg/kg, once a week for two weeks (SIW×2); n=7
Protocol: as §2

[5] = test system: primary human Endometrial model ST040 tumors; assay: Antitumor activity in Endometrial ST040 model; assay type: in vivo, Balb/c nu/nu mice; details: Paclitaxel 15 mg/kg, once a week for two weeks (SIW×2); n=3
[6] = test system: FR-positive paclitaxel resistant KB-PR10 tumors; assay: Antitumor activity on paclitaxel resistant KB-PR10 tumors; assay type: in vivo, nu/nu mice; details: paclitaxel 20 mg/kg, three times a week for two weeks (TIW×2), i.v.
Protocol: Four to six week-old female nu/nu mice (Harlan Sprague Dawley, Inc., Indianapolis, Ind.) were maintained on a standard 12 h light-dark cycle and fed ad libitum with folate-deficient chow (Harlan diet #TD00434, Harlan Teklad, Madison, Wis.) for the duration of the experiment. FR-positive paclitaxel resistant KB-PR10 cells were grown continuously as a monolayer, using folate-free RPMI medium (FFRPMI) containing 5% heat-inactivated fetal calf serum (HIFCS) at 37° C. in a 5% CO2/95% air-humidified atmosphere with no antibiotics. KB-PR10 cells (1×10^6 per nu/nu mouse) in 100 μL were injected in the subcutis of the dorsal medial area. […] Mice were treated with 20 mg/kg Paclitaxel, 2 μmol/kg EC145 (See WO2004/069159 for a description of EC145) or 1 μmol/kg Compound I on a three times a week for 2 weeks schedule when the tumors were approximately 100-145 mm^3, 101-129 mm^3 and 100-140 mm^3 in volume, respectively. The mice in the control groups received no treatment.

[7] = test system: primary human Ovarian model ST024 tumors; assay: Antitumor activity in Ovarian ST024 model; assay type: in vivo, Balb/c nu/nu mice; details: Paclitaxel 15 mg/kg, once a week for two weeks (SIW×2); n=7

SMILES: CC(=O)O[C@@]12CO[C@@H]1C[C@H](O)[C@@]1(C)C(=O)[C@H](O)C3=C(C)[C@@H](OC(=O)[C@H](O)[C@@H](NC(=O)OC(C)(C)C)c4ccccc4)C[C@@](O)([C@@H](OC(=O)c4ccccc4)[C@H]21)C3(C)C [Docetaxel]
- anti-tumor activity [1]: some anti-tumor activity
- anti-tumor activity [2]: minimal anti-tumor activity

SMILES: C=C1C[C@@H]2CC[C@@]34C[C@H]5O[C@H]6[C@@H](O3)[C@H]3O[C@H](CC[C@@H]3O[C@H]6[C@H]5O4)CC(=O)C[C@@H]3[C@@H](OC)[C@@H](C[C@H](O)CN)O[C@H]3C[C@H]3O[C@@H](CC[C@@H]1O2)C[C@@H](C)C3=C [Eribulin mesylate]
- anti-tumor activity [3]: some anti-tumor activity
- anti-tumor activity [4]: minimal anti-tumor activity

SMILES: CC(=O)O[C@H]1C(=O)[C@@]2(C)[C@H]([C@H](OC(=O)c3ccccc3)[C@]3(O)C[C@H](OC(=O)[C@H](O)[C@@H](NC(=O)c4ccccc4)c4ccccc4)C(C)=C1C3(C)C)[C@]1(OC(C)=O)CO[C@@H]1C[C@@H]2O [Paclitaxel]
- anti-tumor activity [5]: minimal anti-tumor activity
- anti-tumor activity [6]: little to no anti-tumor activity
- partial responses [6]: 0
- anti-tumor activity [7]: no anti-tumor activity
